Measured values as given in ChEMBL document CHEMBL1148772, “Inhibition of Mycobacterium tuberculosis, Mycobacterium bovis, and Mycobacterium avium by novel dideoxy nucleosides” (J Med Chem, 2007).
Values after ≈ are worked out from the molar mass of the structure shown.

Columns and labels:
Assay type in all cases: functional
Conditions in all cases: variant bovis BCG
[1] = tested on: Mycobacterium tuberculosis; test: Antimycobacterial activity against Mycobacterium bovis BCG at 100 uM by microplate alamar blue assay
[2] = tested on: Mycobacterium tuberculosis; test: Antimycobacterial activity against Mycobacterium bovis BCG at 10 uM by microplate alamar blue assay
[3] = tested on: Mycobacterium tuberculosis; test: Antimycobacterial activity against Mycobacterium bovis BCG by microplate alamar blue assay
[4] = tested on: Mycobacterium tuberculosis; test: Antimycobacterial activity against Mycobacterium bovis BCG at 50 uM by microplate alamar blue assay
[5] = tested on: Mycobacterium tuberculosis; test: Antimycobacterial activity against Mycobacterium bovis BCG at 1 uM by microplate alamar blue assay

Nc1nc(=O)n([C@H]2CC[C@@H](CO)O2)cc1Br
inhibition at 100 µM [1]: 70% | inhibition at 10 µM [2]: 50%

CCCCCCCCCC#Cc1cn([C@H]2CC[C@@H](CO)O2)c(=O)[nH]c1=O
MIC90 [3]: 1 µg/mL (≈ 2.76 µM) | inhibition at 100 µM [1]: 100% | inhibition at 50 µM [4]: 100% | inhibition at 10 µM [2]: 100% | inhibition at 1 µM [5]: 80%

CCCCCCCCCCCC#Cc1cn([C@H]2CC[C@@H](CO)O2)c(=O)[nH]c1=O
MIC90 [3]: 1 µg/mL (≈ 2.56 µM) | inhibition at 100 µM [1]: 100% | inhibition at 50 µM [4]: 100% | inhibition at 10 µM [2]: 100% | inhibition at 1 µM [5]: 60%

O=c1[nH]c(=O)n([C@H]2CC[C@@H](CO)O2)cc1C#Cc1ccccc1
inhibition at 100 µM [1]: 25% | inhibition at 50 µM [4]: 25%

O=c1[nH]c(=O)n([C@H]2CC[C@@H](CO)O2)cc1Br
inhibition at 100 µM [1]: 0%

CCCC#Cc1cn([C@H]2CC[C@@H](CO)O2)c(=O)[nH]c1=O
inhibition at 100 µM [1]: 50%

Nc1ncnc2c1ncn2[C@H]1CC[C@@H](CO)O1
inhibition at 100 µM [1]: 0%

CC(=O)OC[C@@H]1CC[C@H](n2ccc(=O)[nH]c2=O)O1
inhibition at 100 µM [1]: 0%

O=c1[nH]c(=O)n([C@H]2CC[C@@H](CO)O2)cc1Cl
inhibition at 100 µM [1]: 0%

CCCc1ccc(C#Cc2cn([C@H]3C[C@H](F)[C@@H](CO)O3)c(=O)[nH]c2=O)cc1
MIC90 [3]: 50 µg/mL (≈ 134 µM) | inhibition at 100 µM [1]: 100% | inhibition at 50 µM [4]: 100% | inhibition at 10 µM [2]: 50%

CCCCCCCCCCCCC#Cc1cn(C2CC(F)C(CO)O2)c(=O)[nH]c1=O (stereo not drawn)
MIC90 [3]: 1 µg/mL (≈ 2.37 µM) | inhibition at 100 µM [1]: 100% | inhibition at 50 µM [4]: 100% | inhibition at 10 µM [2]: 100%

CCSc1nc(N)nc2c1ncn2[C@H]1CC[C@@H](CO)O1
MIC90 [3]: 10 µg/mL (≈ 33.9 µM) | inhibition at 100 µM [1]: 100% | inhibition at 50 µM [4]: 100% | inhibition at 10 µM [2]: 40%

CC(=O)OC[C@@H]1CC[C@H](n2cc(Cl)c(=S)[nH]c2=O)O1
MIC90 [3]: 50 µg/mL (≈ 164 µM) | inhibition at 100 µM [1]: 100% | inhibition at 50 µM [4]: 70%

CCCCCC#Cc1cn([C@H]2C[C@H](F)[C@@H](CO)O2)c(=O)[nH]c1=O
MIC90 [3]: 50 µg/mL (≈ 154 µM) | inhibition at 100 µM [1]: 100% | inhibition at 50 µM [4]: 50% | inhibition at 10 µM [2]: 50%

CCCCCCCCC#Cc1cn([C@H]2C[C@H](F)[C@@H](CO)O2)c(=O)[nH]c1=O
MIC90 [3]: 10 µg/mL (≈ 27.3 µM) | inhibition at 100 µM [1]: 100% | inhibition at 50 µM [4]: 100% | inhibition at 10 µM [2]: 60%

CCCCCCCCCCC#Cc1cn([C@H]2C[C@H](F)[C@@H](CO)O2)c(=O)[nH]c1=O
MIC90 [3]: 10 µg/mL (≈ 25.3 µM) | inhibition at 100 µM [1]: 100% | inhibition at 50 µM [4]: 100% | inhibition at 10 µM [2]: 75%

N#Cc1cn(C2CCC(CO)O2)c2ncnc(N)c12 (stereo not drawn)
inhibition at 100 µM [1]: 50% | inhibition at 50 µM [4]: 40%

CCCCCCCCCCCC#Cc1cn([C@H]2C[C@H](F)[C@@H](CO)O2)c(=O)[nH]c1=O
MIC90 [3]: 10 µg/mL (≈ 24.5 µM) | inhibition at 100 µM [1]: 100% | inhibition at 50 µM [4]: 100% | inhibition at 10 µM [2]: 75%

CCCCCCCCC#Cc1cn([C@H]2CC[C@@H](CO)O2)c(=O)[nH]c1=O
MIC90 [3]: 1 µg/mL (≈ 2.87 µM) | inhibition at 100 µM [1]: 100% | inhibition at 50 µM [4]: 100% | inhibition at 10 µM [2]: 100% | inhibition at 1 µM [5]: 50%

Nc1nc(=O)n([C@H]2CC[C@@H](CO)O2)cc1I
inhibition at 100 µM [1]: 0%

CC(=O)OC[C@@H]1CC[C@H](n2cc(Cl)c(=O)[nH]c2=O)O1
inhibition at 100 µM [1]: 0%

Cc1cn([C@H]2CC[C@@H](CO)O2)c(=O)nc1N
inhibition at 100 µM [1]: 50% | inhibition at 50 µM [4]: 50% | inhibition at 10 µM [2]: 50%

NC(=O)c1cn([C@H]2CC[C@@H](CO)O2)c2ncnc(N)c12
inhibition at 100 µM [1]: 25% | inhibition at 50 µM [4]: 25%

Nc1nc(F)c2ccn([C@H]3CC[C@@H](CO)O3)c2n1
inhibition at 100 µM [1]: 50% | inhibition at 50 µM [4]: 50% | inhibition at 10 µM [2]: 30%

O=c1[nH]c(=S)c(Cl)cn1[C@H]1CC[C@@H](CO)O1
MIC90 [3]: 50 µg/mL (≈ 190 µM) | inhibition at 100 µM [1]: 100% | inhibition at 50 µM [4]: 50%

CCCCCCCCCCCCC#Cc1cn([C@H]2CC[C@@H](CO)O2)c(=O)[nH]c1=O
MIC90 [3]: 1 µg/mL (≈ 2.47 µM) | inhibition at 100 µM [1]: 100% | inhibition at 50 µM [4]: 100% | inhibition at 10 µM [2]: 100% | inhibition at 1 µM [5]: 50%

Nc1nc(N)c2ncn([C@H]3CC[C@@H](CO)O3)c2n1
inhibition at 100 µM [1]: 50% | inhibition at 50 µM [4]: 50%

Nc1nc(O)c2ncn([C@H]3CC[C@@H](CO)O3)c2n1
inhibition at 100 µM [1]: 0%

Nc1ccn([C@@H]2CS[C@H](CO)O2)c(=O)n1 [LAMIVUDINE]
inhibition at 100 µM [1]: 0%

COc1nc(N)nc2c1ncn2[C@H]1CC[C@@H](CO)O1 [METACAVIR]
inhibition at 100 µM [1]: 25% | inhibition at 50 µM [4]: 25%

CO[C@H]1/C=C/O[C@@]2(C)Oc3c(C)c(O)c4c(O)c(c(/C=N/N5CCN(C)CC5)c(O)c4c3C2=O)NC(=O)/C(C)=C\C=C\[C@H](C)[C@H](O)[C@@H](C)[C@@H](O)[C@@H](C)[C@H](OC(C)=O)[C@@H]1C [RIFAMPIN]
MIC90 [3]: 0.5 µg/mL (≈ 0.608 µM)

Nc1ccn([C@H]2CC[C@@H](CO)O2)c(=O)n1 [ZALCITABINE]
inhibition at 100 µM [1]: 0%
